Tested on: lymphocytes of patients suffering from chronic lymphoid leukaemia (human leukaemia cells)
Test: Sensibility of chronic lymphoid leukaemia lymphocytes in culture, 3H-thymidine incorporation (CPM) with or without PHA stimulation
Format: cell-based
Description: The sensibility of human leukaemia cells to acetoxymethyl 3β-(methoxypolyethylene glycol acetoxy)-lup-20(29)-en-28-oate 4c-β at different concentrations (from 0.04 mM up to 1 mM) was tested in vitro. The lymphocytes of three patients (4266866, 4266860 and 4262311) suffering from chronic lymphoid leukaemia were used in cell cultures.
On day 0: A multi-well plate was prepared per patient, each comprising 10^6 cells/well in a total volume of 1 ml. Cells, RPMI (cell growth medium) and test compound 4c-β were added in accordance with table 2 (all experiments were duplicated). The test compound dissolved in RPMI was added in the following amounts: 10 μl≡0.04 mM, 50 μl≡0.2 mM, 100 μl≡0.4 mM, 150 μl≡0.6 mM, 200 μl≡0.8 mM, and 250 μl≡1 mM.
On day 2: • 500 μl was taken from each well of plate 1 and put into a well of plate 2. • Plate 2: cells were tritiated with ^3H-thymidine for 4 hours; after the 4 hours incubation in the presence of radioactivity, plate 2 was harvested and radioactivity was counted. • Plate 1: 50 μl PHA was added to the 500 μl of each well of plate 1.
On day 5: • Plate 1: cells and PHA were tritiated with ^3H-thymidine for 4 hours; after the 4 hours incubation in the presence of radioactivity, plate 1 was harvested and radioactivity was counted.
PHA (a lectin named phytoagglutine, which is a mitogen activating living cells) was added to the cells in culture. PHA acts as a stimulating agent. All human lymphocytes have receptors for this type of lectin and all human lymphocytes undergo lymphoblastic transformation when stimulated by PHA. By adding PHA to the cells in culture, it was possible to measure whether the cells were still alive.
CPM stands for counts per minute and measures the disintegration of the tritiated ^3H-thymidine. Thus, CPM reflects the radioactivity of the cells' DNA having incorporated the tritiated ^3H-thymidine after mitosis. […]
On day 0: A multi-well plate was prepared, comprising 10^6 cells/well in a total volume of 1.5 ml. […] The test compound dissolved in RPMI was added in the following amounts: 125 μl≡0.5 mM and 250 μl≡1 mM. […]
The sensibility of human leukaemia cells to acetoxymethyl 3β-(methoxypolyethylene glycol acetoxy)-lupan-28-oate 8c-β at different concentrations (0.5 mM and 1 mM) was tested in vitro. The lymphocytes of one patient (4316182) suffering from chronic lymphoid leukaemia were used in cell cultures. […]
On day 2: • Plate 1: cells were tritiated with ^3H-thymidine for 4 hours; after the 4 hours incubation in the presence of radioactivity, plate 1 was harvested and radioactivity was counted. • Plate 2: cells were tritiated with ^3H-thymidine for 4 hours; after the 4 hours incubation in the presence of radioactivity, plate 2 was harvested and radioactivity was counted.

[1] = 0.5 mM and 1 mM, one patient, FIG. 4

Acetoxymethyl 3β-(methoxypolyethylene glycol acetoxy)-lupan-28-oate [compound 8c-β]
killing of cells by test compound [1]: killed the cells
reactivation of cells by addition of PHA after contact with test compound [1]: unable to be reactivated by the addition of PHA

Acetoxymethyl 3β-(methoxypolyethylene glycol acetoxy)-lup-20(29)-en-28-oate [compound 4c-β]
activation of cells by PHA after contact with test compound (plate 1, PHA added day 2, counted day 5, 0.04 mM up to 1 mM, three patients, FIGS. 2a-c): could no longer be activated by PHA
time within which cells contacted with test compound were killed (CPM after 3H-thymidine) (plate 2, 0.04 mM up to 1 mM, three patients, FIGS. 2a-c): ≤ 48 h

Reference: US8586569B2, “Betulonic and betulinic acid derivatives” (priority 2006, dated 2013)
